# Experimental data from BigSolDB 2.1.
structure (smiles),measurement,setting,value
Cl.O=C(O)c1cn(-c2ccc(F)cc2)c2cc(N3CCNCC3)c(F)cc2c1=O,solubility (mole fraction),"in DMF, 278.15 K",0.00136
same,solubility (mole fraction),"in DMF, 283.15 K",0.00148
same,solubility (mole fraction),"in DMF, 288.15 K",0.00164
same,solubility (mole fraction),"in DMF, 293.15 K",0.00183
same,solubility (mole fraction),"in DMF, 298.15 K",0.00205
same,solubility (mole fraction),"in DMF, 303.15 K",0.00232
same,solubility (mole fraction),"in DMF, 308.15 K",0.00259
same,solubility (mole fraction),"in DMF, 313.15 K",0.0029
same,solubility (mole fraction),"in DMF, 318.15 K",0.00324
same,solubility (mole fraction),"in DMF, 323.15 K",0.00359
same,solubility (mole fraction),"in DMF, 328.15 K",0.00397
same,solubility (mole fraction),"in DMF, 333.15 K",0.0044
same,solubility (mole fraction),"in acetonitrile, 278.15 K",0.00011
same,solubility (mole fraction),"in acetonitrile, 283.15 K",0.00012
same,solubility (mole fraction),"in acetonitrile, 288.15 K",0.00014
same,solubility (mole fraction),"in acetonitrile, 293.15 K",0.00017
same,solubility (mole fraction),"in acetonitrile, 298.15 K",0.0002
same,solubility (mole fraction),"in acetonitrile, 303.15 K",0.00024
same,solubility (mole fraction),"in acetonitrile, 308.15 K",0.00028
same,solubility (mole fraction),"in acetonitrile, 313.15 K",0.00034
same,solubility (mole fraction),"in acetonitrile, 318.15 K",0.0004
same,solubility (mole fraction),"in acetonitrile, 323.15 K",0.00047
same,solubility (mole fraction),"in acetonitrile, 328.15 K",0.00054
same,solubility (mole fraction),"in acetonitrile, 333.15 K",0.00062
same,solubility (mole fraction),"in ethanol, 278.15 K",0.00019
same,solubility (mole fraction),"in ethanol, 283.15 K",0.00022
same,solubility (mole fraction),"in ethanol, 288.15 K",0.00025
same,solubility (mole fraction),"in ethanol, 293.15 K",0.00029
same,solubility (mole fraction),"in ethanol, 298.15 K",0.00033
same,solubility (mole fraction),"in ethanol, 303.15 K",0.00037
same,solubility (mole fraction),"in ethanol, 308.15 K",0.00043
same,solubility (mole fraction),"in ethanol, 313.15 K",0.00049
same,solubility (mole fraction),"in ethanol, 318.15 K",0.00056
same,solubility (mole fraction),"in ethanol, 323.15 K",0.00064
same,solubility (mole fraction),"in ethanol, 328.15 K",0.00072
same,solubility (mole fraction),"in ethanol, 333.15 K",0.0008
same,solubility (mole fraction),"in ethyl acetate, 278.15 K",0.0038
same,solubility (mole fraction),"in ethyl acetate, 283.15 K",0.00422
same,solubility (mole fraction),"in ethyl acetate, 288.15 K",0.00476
same,solubility (mole fraction),"in ethyl acetate, 293.15 K",0.00539
same,solubility (mole fraction),"in ethyl acetate, 298.15 K",0.00627
same,solubility (mole fraction),"in ethyl acetate, 303.15 K",0.00719
same,solubility (mole fraction),"in ethyl acetate, 308.15 K",0.00831
same,solubility (mole fraction),"in ethyl acetate, 313.15 K",0.00961
same,solubility (mole fraction),"in ethyl acetate, 318.15 K",0.0109
same,solubility (mole fraction),"in ethyl acetate, 323.15 K",0.0126
same,solubility (mole fraction),"in ethyl acetate, 328.15 K",0.0144
same,solubility (mole fraction),"in ethyl acetate, 333.15 K",0.0163
same,solubility (mole fraction),"in isopropanol, 278.15 K",0.00047
same,solubility (mole fraction),"in isopropanol, 283.15 K",0.00059
same,solubility (mole fraction),"in isopropanol, 288.15 K",0.00072
same,solubility (mole fraction),"in isopropanol, 293.15 K",0.00083
same,solubility (mole fraction),"in isopropanol, 298.15 K",0.00098
same,solubility (mole fraction),"in isopropanol, 303.15 K",0.0011
same,solubility (mole fraction),"in isopropanol, 308.15 K",0.00123
same,solubility (mole fraction),"in isopropanol, 313.15 K",0.00134
same,solubility (mole fraction),"in isopropanol, 318.15 K",0.00147
same,solubility (mole fraction),"in isopropanol, 323.15 K",0.00161
same,solubility (mole fraction),"in isopropanol, 328.15 K",0.00172
same,solubility (mole fraction),"in isopropanol, 333.15 K",0.00185
same,solubility (mole fraction),"in methanol, 278.15 K",0.00181
same,solubility (mole fraction),"in methanol, 283.15 K",0.00194
same,solubility (mole fraction),"in methanol, 288.15 K",0.00211
same,solubility (mole fraction),"in methanol, 293.15 K",0.00234
same,solubility (mole fraction),"in methanol, 298.15 K",0.00262
same,solubility (mole fraction),"in methanol, 303.15 K",0.00294
same,solubility (mole fraction),"in methanol, 308.15 K",0.0033
same,solubility (mole fraction),"in methanol, 313.15 K",0.00369
same,solubility (mole fraction),"in methanol, 318.15 K",0.00411
same,solubility (mole fraction),"in methanol, 323.15 K",0.00457
same,solubility (mole fraction),"in methanol, 328.15 K",0.00502
same,solubility (mole fraction),"in methanol, 333.15 K",0.00549
same,solubility (mole fraction),"in n-butanol, 278.15 K",0.00148
same,solubility (mole fraction),"in n-butanol, 283.15 K",0.00162
same,solubility (mole fraction),"in n-butanol, 288.15 K",0.00179
same,solubility (mole fraction),"in n-butanol, 293.15 K",0.00202
same,solubility (mole fraction),"in n-butanol, 298.15 K",0.00224
same,solubility (mole fraction),"in n-butanol, 303.15 K",0.0025
same,solubility (mole fraction),"in n-butanol, 308.15 K",0.00281
same,solubility (mole fraction),"in n-butanol, 313.15 K",0.00312
same,solubility (mole fraction),"in n-butanol, 318.15 K",0.00344
same,solubility (mole fraction),"in n-butanol, 323.15 K",0.00379
same,solubility (mole fraction),"in n-butanol, 328.15 K",0.00419
same,solubility (mole fraction),"in n-butanol, 333.15 K",0.00463
same,solubility (mole fraction),"in n-hexane, 278.15 K",0.00029
same,solubility (mole fraction),"in n-hexane, 283.15 K",0.00033
same,solubility (mole fraction),"in n-hexane, 288.15 K",0.00038
same,solubility (mole fraction),"in n-hexane, 293.15 K",0.00044
same,solubility (mole fraction),"in n-hexane, 298.15 K",0.00053
same,solubility (mole fraction),"in n-hexane, 303.15 K",0.00063
same,solubility (mole fraction),"in n-hexane, 308.15 K",0.00075
same,solubility (mole fraction),"in n-hexane, 313.15 K",0.00089
same,solubility (mole fraction),"in n-hexane, 318.15 K",0.00105
same,solubility (mole fraction),"in n-hexane, 323.15 K",0.0012
same,solubility (mole fraction),"in n-hexane, 328.15 K",0.00137
same,solubility (mole fraction),"in n-hexane, 333.15 K",0.00155
